Where “and” joins values, the source holds several entries; their conditions need not be identical. Equal values may be shown once.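 Five compound concentrations were applied to cells in 96-well plates for 48 hours; endpoints were derived by simple linear interpolation of the resulting dose-response curve. Here, GI50 denotes the concentration required for 50% inhibition of growth. At the TGI there is no net growth.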
Experiments:
Test in all cases: DTP human tumour cell line panel, 48 h
[1] = test system: SF-268 CNS
[2] = test system: HCT-116 colon
[3] = test system: MDA-MB-468 breast
[4] = test system: ACHN renal
[5] = test system: K-562 leukemia
[6] = test system: CAKI-1 renal
[7] = test system: OVCAR-5 ovarian
[8] = test system: LOX IMVI melanoma
[9] = test system: SNB-19 CNS
[10] = test system: U251 CNS
[11] = test system: OVCAR-4 ovarian
[12] = test system: SW-620 colon
[13] = test system: SK-MEL-2 melanoma
[14] = test system: UACC-62 melanoma
[15] = test system: SNB-75 CNS
[16] = test system: 786-0 renal
[17] = test system: SN12C renal
[18] = test system: A549 NSCLC
[19] = test system: UO-31 renal
[20] = test system: SR leukemia
[21] = test system: SF-295 CNS
[22] = test system: SF-539 CNS
[23] = test system: NCI-H226 lung
[24] = test system: MOLT-4 leukemia
[25] = test system: KM12 colon
[26] = test system: NCI-H460 lung
[27] = test system: HOP-62 NSCLC
[28] = test system: TK-10 renal
[29] = test system: SK-MEL-28 melanoma
[30] = test system: SK-OV-3 ovarian
[31] = test system: RXF 393 renal
[32] = test system: MCF7 breast
[33] = test system: MDA-MB-231 breast
[34] = test system: NCI-H522 lung
[35] = test system: IGROV1 ovarian
[36] = test system: A498 renal
[37] = test system: OVCAR-3 ovarian
[38] = test system: SK-MEL-5 melanoma
[39] = test system: MALME-3M melanoma
[40] = test system: HCT-15 colon
[41] = test system: M14 melanoma
[42] = test system: COLO 205 colon
[43] = test system: HS 578T breast
[44] = test system: RPMI-8226 leukemia
[45] = test system: HOP-92 NSCLC
[46] = test system: UACC-257 melanoma
[47] = test system: NCI-H23 lung
[48] = test system: HL-60(TB) leukemia
[49] = test system: CCRF-CEM leukemia
[50] = test system: PC-3 prostate
[51] = test system: HCC-2998 colon
[52] = test system: EKVX NSCLC
[53] = test system: MDA-MB-435
[54] = test system: OVCAR-8 ovarian
[55] = test system: BT-549 breast
[56] = test system: DU-145 prostate

Question: Which GI50 [1] does the source give for `CSc1ccccc1NC(=O)c1ccc2nnn(/C(C#N)=C/c3ccccn3)c2c1` here?
Answer: 11.5 µM

Question: What about the TGI [1] of the same molecule?
Answer: 28.7 µM

Question: What about the GI50 [2] of the same molecule?
Answer: 1.8 µM

Question: What about the TGI [2] of the same molecule?
Answer: 3.46 µM

Question: And the GI50 [3]?
Answer: 1.6 µM

Question: What about the TGI [3] of the same molecule?
Answer: 3.32 µM

Question: What about the GI50 [4] of the same molecule?
Answer: 1.78 µM

Question: What about the TGI [4] of the same molecule?
Answer: 3.17 µM

Question: And the GI50 [5]?
Answer: 1.84 µM

Question: What about the TGI [5] of the same molecule?
Answer: 6.86 µM

Question: What about the GI50 [6] of the same molecule?
Answer: 1.55 µM

Question: And the TGI [6]?
Answer: 2.92 µM

Question: What about the GI50 [7] of the same molecule?
Answer: 1.84 µM

Question: What about the TGI [7] of the same molecule?
Answer: 3.91 µM

Question: And the GI50 [8]?
Answer: 1.7 µM

Question: And the TGI [8]?
Answer: 3.19 µM

Question: And the GI50 [9]?
Answer: 13.4 µM

Question: What about the TGI [9] of the same molecule?
Answer: 26.2 µM

Question: What about the GI50 [10] of the same molecule?
Answer: 3.61 µM

Question: What about the TGI [10] of the same molecule?
Answer: 12.9 µM

Question: What about the GI50 [11] of the same molecule?
Answer: 4.22 µM

Question: And the TGI [11]?
Answer: 17.3 µM

Question: And the GI50 [12]?
Answer: 1.86 µM

Question: And the TGI [12]?
Answer: 3.54 µM

Question: What about the GI50 [13] of the same molecule?
Answer: 2.25 µM

Question: And the TGI [13]?
Answer: 5.22 µM

Question: And the GI50 [14]?
Answer: 1.83 µM

Question: What about the TGI [14] of the same molecule?
Answer: 3.84 µM

Question: What about the GI50 [15] of the same molecule?
Answer: 10.1 µM

Question: What about the TGI [15] of the same molecule?
Answer: 21.7 µM

Question: And the GI50 [16]?
Answer: 1.82 µM

Question: And the TGI [16]?
Answer: 3.38 µM

Question: And the GI50 [17]?
Answer: 3.87 µM

Question: And the TGI [17]?
Answer: 14.1 µM

Question: What about the GI50 [18] of the same molecule?
Answer: 10.2 µM

Question: And the TGI [18]?
Answer: 23.6 µM

Question: And the GI50 [19]?
Answer: 1.55 µM

Question: What about the TGI [19] of the same molecule?
Answer: 2.89 µM

Question: What about the GI50 [20] of the same molecule?
Answer: 2.51 µM

Question: And the TGI [20]?
Answer: 9.46 µM

Question: And the GI50 [21]?
Answer: 15.5 µM

Question: What about the TGI [21] of the same molecule?
Answer: 28.8 µM

Question: What about the GI50 [22] of the same molecule?
Answer: 1.84 µM

Question: And the TGI [22]?
Answer: 3.54 µM

Question: And the GI50 [23]?
Answer: 13.9 µM

Question: What about the TGI [23] of the same molecule?
Answer: 32.9 µM

Question: And the GI50 [24]?
Answer: 3.29 µM

Question: And the TGI [24]?
Answer: 9.07 µM

Question: What about the GI50 [25] of the same molecule?
Answer: 3.08 µM

Question: What about the TGI [25] of the same molecule?
Answer: 10.7 µM

Question: What about the GI50 [26] of the same molecule?
Answer: 3.24 µM

Question: What about the TGI [26] of the same molecule?
Answer: 11.1 µM

Question: And the GI50 [27]?
Answer: 15.7 µM

Question: And the TGI [27]?
Answer: 30.9 µM

Question: What about the GI50 [28] of the same molecule?
Answer: 1.75 µM

Question: And the TGI [28]?
Answer: 3.25 µM

Question: What about the GI50 [29] of the same molecule?
Answer: 1.86 µM

Question: What about the TGI [29] of the same molecule?
Answer: 3.75 µM

Question: What about the GI50 [30] of the same molecule?
Answer: 18.6 µM

Question: And the TGI [30]?
Answer: 33.8 µM

Question: And the GI50 [31]?
Answer: 1.5 µM

Question: What about the TGI [31] of the same molecule?
Answer: 2.86 µM

Question: What about the GI50 [32] of the same molecule?
Answer: 1.69 µM

Question: And the TGI [32]?
Answer: 3.36 µM

Question: And the GI50 [33]?
Answer: 1.99 µM

Question: What about the TGI [33] of the same molecule?
Answer: 4.06 µM

Question: And the GI50 [34]?
Answer: 1.56 µM

Question: What about the TGI [34] of the same molecule?
Answer: 3.22 µM

Question: And the GI50 [35]?
Answer: 2.07 µM

Question: What about the TGI [35] of the same molecule?
Answer: 4.46 µM

Question: What about the GI50 [36] of the same molecule?
Answer: 15.3 µM

Question: What about the TGI [36] of the same molecule?
Answer: 28.6 µM

Question: What about the GI50 [37] of the same molecule?
Answer: 1.77 µM

Question: What about the TGI [37] of the same molecule?
Answer: 3.48 µM

Question: And the GI50 [38]?
Answer: 3.37 µM

Question: And the TGI [38]?
Answer: 12.1 µM

Question: And the GI50 [39]?
Answer: 1.75 µM

Question: And the TGI [39]?
Answer: 3.29 µM

Question: What about the GI50 [40] of the same molecule?
Answer: 1.67 µM

Question: What about the TGI [40] of the same molecule?
Answer: 3.54 µM

Question: What about the GI50 [41] of the same molecule?
Answer: 2 µM

Question: What about the TGI [41] of the same molecule?
Answer: 3.98 µM

Question: What about the GI50 [42] of the same molecule?
Answer: 2.02 µM

Question: And the TGI [42]?
Answer: 3.63 µM

Question: What about the GI50 [43] of the same molecule?
Answer: 3.29 µM

Question: And the TGI [43]?
Answer: 13.3 µM

Question: And the GI50 [44]?
Answer: 3.14 µM

Question: And the TGI [44]?
Answer: > 100 µM

Question: And the GI50 [45]?
Answer: 1.89 µM

Question: And the TGI [45]?
Answer: 7.5 µM

Question: And the GI50 [46]?
Answer: 2.02 µM

Question: And the TGI [46]?
Answer: 5.3 µM

Question: And the GI50 [47]?
Answer: 1.8 µM

Question: What about the TGI [47] of the same molecule?
Answer: 3.52 µM

Question: And the GI50 [48]?
Answer: 1.9 µM

Question: And the TGI [48]?
Answer: 5.97 µM

Question: And the GI50 [49]?
Answer: 3 µM

Question: And the TGI [49]?
Answer: > 100 µM

Question: And the GI50 [50]?
Answer: 4.09 µM

Question: And the TGI [50]?
Answer: 16.6 µM

Question: And the GI50 [51]?
Answer: 1.78 µM

Question: What about the TGI [51] of the same molecule?
Answer: 3.33 µM

Question: And the GI50 [52]?
Answer: 4.59 µM

Question: And the TGI [52]?
Answer: 16.1 µM

Question: And the GI50 [53]?
Answer: 2.07 µM

Question: What about the TGI [53] of the same molecule?
Answer: 4.89 µM

Question: And the GI50 [54]?
Answer: 3.34 µM

Question: And the TGI [54]?
Answer: 12.7 µM

Question: What about the GI50 [55] of the same molecule?
Answer: 2.32 µM

Question: What about the TGI [55] of the same molecule?
Answer: 7.2 µM

Question: What about the GI50 [56] of the same molecule?
Answer: 1.93 µM

Question: What about the TGI [56] of the same molecule?
Answer: 3.64 µM

Question: For `CNC(=O)c1cc(Oc2ccc3c(c2)sc2nc(-c4ccc(N)cc4)cn23)ccn1`, which GI50 [3] is on record?
Answer: 0.304 µM

Question: And the TGI [3]?
Answer: > 100 µM

Question: Which results are given for `COc1cc2c(c(OC)c1OC)-c1ccc(NCc3ccccc3)c(=O)cc1[C@@H](NC(C)=O)CC2`?
Answer: GI50 [3]: 0.319 µM; TGI [3]: 9.13 µM

Question: With `Cn1cc(C2=C(c3ccc(OC[C@@H](O)CO)cc3)C(=O)NC2=O)c2ccccc21` as the molecule, how does the GI50 [3] read?
Answer: > 25 µM

Question: What about the TGI [3] of the same molecule?
Answer: > 25 µM

Question: Which results are given for `O=C(NNc1nc2cc(F)c(F)cc2n2cccc12)c1cccnn1`?
Answer: GI50 [3]: 0.408 µM and 0.204 µM; TGI [3]: 1.5 µM and 0.712 µM

Question: What does the source list for `CS(=O)c1nccc(-c2c(-c3ccc(F)c(OCCc4ccc(F)cc4)c3)nc3sccn23)n1` (stereo not drawn)?
Answer: GI50 [3]: 1.73 µM; TGI [3]: 3.76 µM

Question: How did the GI50 [3] turn out when `COc1ccc(CN2CCCC(C(=O)c3ccc(C(F)(F)F)cc3)C2)c(O)c1` (stereo not drawn) was run?
Answer: 15.7 µM

Question: What about the TGI [3] of the same molecule?
Answer: 41.6 µM

Question: For `OC(c1cccc(C(F)(F)F)c1)c1cnccc1NC1CCCCCC1` (stereo not drawn), which GI50 [3] is on record?
Answer: 1.22 µM

Question: What about the TGI [3] of the same molecule?
Answer: 2.76 µM

Question: What does the source list for `O=C1c2ccccc2C(=O)c2c1ccc1[nH]c(CCl)nc21`?
Answer: GI50 [3]: 1.94 µM; TGI [3]: 4.29 µM

— PubChem BioAssay (NCI)
